Entries after “also recorded” stand apart in the source; their conditions may differ. No end group written: not given here.
Experiments:
[1] = Solubility characteristics of COPs
Procedure: (§1) Peptides were resuspended either in water at 2 mg/ml or at 10 to 20 mg per ml in DMSO as indicated and frozen in aliquots.

[2] = pH 7
Procedure: as §1

[3] = tested on: Amb a 1 specific IgE in serum of subjects allergic to ragweed pollen; assay: Competition ELISA for IgE binding on nAmb a 1 coated plates; design: species or system human
Procedure: Recombinant Amb a 1 at 0.5 μg/ml (purified nAmb a 1 obtained from Protein Labs, San Diego) was coated overnight on 96-well Nunc Maxisorp® immunoplates (Life Technologies, Basel, Switzerland). After blocking with 1% BSA, either ten-fold, twenty-fold, thirty-fold or forty-fold dilutions of patient serum were added depending on specific IgE content. […] The sera of three allergic patients were selected for high IgE level and clear signal over background and used to test for competition with the peptides. Serial dilutions of each set of COPs, namely Set A; Set B and Set C, at indicted concentrations were pre-incubated with the three selected sera overnight at 4° C. Sera were then incubated on nAmb a 1 coated 96-well plates and residual IgE binding was determined as described above. nAmb a 1 dilutions were used as control for inhibition, whereas BSA was used as control for possible non-specific inhibition.

[4] = tested on: human basophils loaded with serum from a patient allergic to ragweed pollen; assay: Human basophil degranulation test (Basotest); type: cell-based
Procedure: BasotestR (ORPEGEN Pharma Heidelberg, Germany) was used for the quantitative determination of in vitro basophile degranulation. Heparinized blood (100 μl) from a non-allergic donor (ACT) was first incubated with serum (25 μl) from a patient allergic to ragweed pollen (FB) for 2 hours. The mix was further stimulated with buffer (reagent B) for 10 min at 37° C., and then with or without chemotactic peptide formylmethionylleucylphenylalanine (fMLP) as positive and negative controls respectively. Aliquots of blood were incubated in parallel with 100 μl allergen solution diluted in a saline solution for 20 min at 37° C. A dose response curve was performed with 250-12.5-0.625-0.031 nano-molar nAmb a 1 (added concentration) as well as starting 10 fold higher with AllerR mixed Sets (AllerR1-R6 and AllerR7-11). The activation process was stopped by incubating the blood samples at 4° C. for 5 min. The samples were then incubated for 20 min at +4° C.) (dark condition with 20 μl of phycoerythrin (PE)-conjugated anti-IgE and fluorescein isothyocyanate (FITC)-conjugated anti-gp53 (CD63). […] Cells were washed twice with PBS solution and resuspended in 200 μl of PBS solution and analyzed within 2 h by flow cytometry (FASC-LSRII-Becton Dickinson). The basophile population was gated on the PE anti-IgE positive cells and the expression of gp53 (CD63) was analyzed on this population. […]

[5] = tested on: Rat Basophilic Leukemia cells (RBL-30/25) expressing human IgE receptor, pre-loaded with sera from allergic patients; assay: RBL cell degranulation (beta-hexosaminidase release); type: cell-based; conditions: sera from panel of allergic patients (21 sera); FIG. 3
Procedure: Alternatively, degranulation was monitored using Rat Basophilic Leukemia cells (RBL) expressing parts of the human IgE receptor pre-loaded with sera from allergic patients (Vogel et al, Allergy 60: 1021-1028 (2005)). Essentially, RBL-30/25 cells were pre-incubated overnight with sera from patients from the region around Lyon (France, Biomnis) as well as from US (Plasma Lab International). To increase and stabilize the secretion of beta-hexosaminidase, 50% D2O was added to the Tyrode's buffer used for the assay. beta-hexosaminidase release after IgE crosslinking with an anti-IgE antibody was set to 100% release reflecting the ability of the cells to release beta-hexosaminidase upon IgE crosslinking. Amb a 1-specific release is given as percent of IgE mediated release.

[6] = tested on: Balb/c mice sensitized with nAmb a 1; assay: Anaphylactic response in sensitized mice (sensitization and challenge); type: in vivo
Procedure: Balb/c mice were sensitized by repeated injections of low doses (1 ug) of the allergen Amb a 1 by 5 subcutaneous injections at 14 days interval. […] Anaphylactic symptoms were scored using a scale of 6 grades (0, no symptoms to 5, death) adapted from Sade et al. J Investig Allergol Clin Immunol; 17(6): 379-385 (2007). Rectal temperature was monitored at 15 minutes intervals for 60 minutes after challenge using a digital thermometer. Citrate buffer was used as control for sensitization and challenge leading to two additional mice groups.

TIDGRGAKVEIINAGFTLNGVKNVIIHNINMHDVKVNPGGLIK [AllerR3]
solubility ([1]; water): 2000 µg/mL

FVLLFGAGDENIEDRGMLATVAFNTFTDNVDQRMPRCRHGFFQVVNNNYDKWGSYAIGGSASPTILSQGNRFCAPDERS [AllerR10]
Conc. (solubility) [2]: 2000 µg/mL

TSGAYNIIDGCWRGKADWAENRKALADCAQGFGKGTVGGKDGDIYTVTSELDDDVANPK (cysteines drawn unpaired) [AllerR1]
solubility ([1]; water): 2000 µg/mL

VDAKLGTTRLTVSNSLFTQHQFVLLFGAGDENIEDRGMLATVAFNTFTDN [AllerR4.2]
solubility ([1]; 5 mM HCl, 0.1 M NaOH and 0.1 M citrate buffer pH 5.6, pH 5.6): 1000 µg/mL
Solubility (in words) ([1]; solvent as stated in the value): not soluble in H2O

AGSDGDAISISGSSQIWIDHCSLSKSVDGLVDAKLGTTRLTVSNSLFTQHQFVLLFGAGDENIEDRGMLATVAFNTFTDN [AllerR4]
IgE binding (in words) ([3]; as seen in competition ELISA): did not bind IgE
IgE binding (in words) ([4]; as seen in degranulation assays): did not bind IgE

DVANPKEGTLRFGAAQNRPLWIIFERDMVIRLDKEMVVNSDKTIDGRGAKVE [AllerR2]
solubility ([1]; water): 2000 µg/mL

B1: nAmb a 1: ragweed pollen major allergen purified from ragweed pollen by Protein Labs; positive control (protein)
chain: AEDLQEILPVNETRRLTTSGAYNIIDGCWRGKADWAENRKALADCAQGFGKGTVGGKDGDIYTVTSELDDDVANPKEGTLRFGAAQNRPLWIIFERDMVIRLDKEMVVNSDKTIDGRGAKVEIINAGFTLNGVKNVIIHNINMHDVKVNPGGLIKSNDGPAAPRAGSDGDAISISGSSQIWIDHCSLSKSVDGLVDAKLGTTRLTVSNSLFTQHQFVLLFGAGDENIEDRGMLATVAFNTFTDNVDQRMPRCRHGFFQVVNNNYDKWGSYAIGGSASPTILSQGNRFCAPDERSKKNVLGRHGEAAAESMKWNWRTNKDVLENGAIFVASGVDPVLTPEQSAGMIPAEPGESALSLTSSAGVLSCQPGAPC
Concentration range showing competition ([3]; panel of sera from 22 patients allergic to ragweed, data not shown): 10^−11 to 10^−8 molar
Concentrations at which competition with serum IgE occurs ([3]; sera from three allergic patients (17794, 18342, FB), FIG. 1): 10^−11 to 10^−8 M
Basophil degranulation (CD63 expression), in words ([4]; human basophils loaded with serum FB, FIG. 2): induce human basophil degranulation
Degranulation of RBL cells, in words [5]: triggered degranulation to various extents; also recorded: triggered degranulation to various extend
Anaphylactic symptom scores (scale 0 to 5) ([6]; challenge 7 days after last sensitizing injection, Amb a 1 30 μg/ml or AllerR 34 μg/ml, observed one hour, FIG. 5 panel A): significant increase in symptom scores already after 15 min
Rectal (body) temperature after challenge ([6]; measured every 15 min, FIG. 5 panel B): marked decrease in rectal temperature
IgE mean levels, increase over pre-immune following sensitization ([6]; mice sensitized by repeated s.c. injections of nAmb a 1, FIG. 5 panel C): about 500 fold

From US9005627B2, “Contiguous overlapping peptides for treatment of ragweed pollen allergy” (Anergis S.A., priority 2011, dated 2015)
